{"source": "patent US11866450B2", "about": "“Modulators of Cystic Fibrosis Transmembrane Conductance regulator, pharmaceutical compositions, methods of treatment, and process for making the modulators” (priority 2018, dated 2024)", "key": {"[1]": {"details": "snar bond"}, "[2]": {"biological_target": "CFTR-mediated chloride transport (Homo sapiens, UniProt P13569)", "sequence (P13569 whole entry, looked up)": "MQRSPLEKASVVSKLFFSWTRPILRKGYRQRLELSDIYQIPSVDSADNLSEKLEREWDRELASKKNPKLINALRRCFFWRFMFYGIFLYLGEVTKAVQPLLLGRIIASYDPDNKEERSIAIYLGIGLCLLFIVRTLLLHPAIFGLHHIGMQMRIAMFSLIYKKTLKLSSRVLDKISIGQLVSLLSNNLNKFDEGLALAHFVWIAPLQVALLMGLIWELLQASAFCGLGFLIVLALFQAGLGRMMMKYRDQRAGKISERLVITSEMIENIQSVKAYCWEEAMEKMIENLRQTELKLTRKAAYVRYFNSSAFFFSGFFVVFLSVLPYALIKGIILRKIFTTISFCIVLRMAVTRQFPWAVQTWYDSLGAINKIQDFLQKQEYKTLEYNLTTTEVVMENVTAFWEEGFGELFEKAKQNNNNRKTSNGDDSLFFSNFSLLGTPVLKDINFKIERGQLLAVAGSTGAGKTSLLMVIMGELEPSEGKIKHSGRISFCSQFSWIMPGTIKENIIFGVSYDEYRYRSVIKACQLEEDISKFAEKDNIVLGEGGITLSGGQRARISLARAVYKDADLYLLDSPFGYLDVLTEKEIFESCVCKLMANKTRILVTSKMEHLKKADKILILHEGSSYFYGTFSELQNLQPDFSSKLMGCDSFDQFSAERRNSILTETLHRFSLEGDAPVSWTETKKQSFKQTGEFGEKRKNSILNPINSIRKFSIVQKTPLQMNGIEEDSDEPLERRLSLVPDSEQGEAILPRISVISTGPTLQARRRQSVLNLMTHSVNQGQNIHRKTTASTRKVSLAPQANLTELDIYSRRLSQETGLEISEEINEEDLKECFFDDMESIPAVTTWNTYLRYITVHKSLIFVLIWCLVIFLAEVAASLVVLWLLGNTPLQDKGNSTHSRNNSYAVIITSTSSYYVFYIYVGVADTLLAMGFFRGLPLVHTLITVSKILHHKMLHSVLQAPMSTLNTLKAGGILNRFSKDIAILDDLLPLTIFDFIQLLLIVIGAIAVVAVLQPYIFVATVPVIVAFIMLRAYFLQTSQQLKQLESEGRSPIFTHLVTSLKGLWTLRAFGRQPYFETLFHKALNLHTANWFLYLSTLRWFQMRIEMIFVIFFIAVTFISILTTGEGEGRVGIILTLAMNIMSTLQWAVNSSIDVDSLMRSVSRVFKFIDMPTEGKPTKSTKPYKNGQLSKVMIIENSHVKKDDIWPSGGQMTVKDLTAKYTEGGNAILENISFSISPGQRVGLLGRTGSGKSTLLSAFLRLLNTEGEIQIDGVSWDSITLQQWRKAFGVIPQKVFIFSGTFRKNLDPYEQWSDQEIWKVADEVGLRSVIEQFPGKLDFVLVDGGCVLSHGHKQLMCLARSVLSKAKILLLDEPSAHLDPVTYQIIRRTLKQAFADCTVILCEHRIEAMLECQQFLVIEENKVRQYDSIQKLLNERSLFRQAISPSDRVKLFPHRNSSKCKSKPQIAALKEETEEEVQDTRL", "type": "cell-based", "details": "enteroid cells incubated with test compound 18-24 hours, acute 10 μM forskolin and 300 nM Compound III; for Max. Activity: % of chloride transport with 3 μM Compound A, 3 μM Compound II and 300 nM acute Compound III triple combination control", "in_short": "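Human intestinal enteroid cells incubated with compound 18–24 h at 37° C., then membrane potential dye (FLIPR) read 15 min after chloride-free stimulation with 10 μM forskolin, 100 μM IBMX and 300 nM Compound III. AUC expressed as % of triple-combination control (3 μM Compound A, 3 μM Compound II, 300 nM Compound III).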"}}, "note": "Where two headings read alike, the source gives them in different places."}
{"compound": "CC1(C)CC2CCCNc3cccc(n3)S(=O)(=O)NC(=O)c3ccc(-n4ccc(OCC5(C(F)(F)F)CC5)n4)nc3N1C2", "note": "(racemic) [Compound 15, 12,12-dimethyl-8-(3-{[1-(trifluoromethyl)cyclopropyl]methoxy}-1H-pyrazol-1-yl)-2λ^6-thia-3,9,11,18,23-pentaazatetracyclo[17.3.1.111,14.05,10]tetracosa-1(23),5(10),6,8,19,21-hexaene-2,2,4-trione]", "values": [{"measurement": "ring closure, isolated yield", "setting": "[1]; from CC1(C)CC(CCCNc2cccc(S(=O)(=O)NC(=O)c3ccc(-n4ccc(OCC5(C(F)(F)F)CC5)n4)nc3Cl)n2)CN1, 15-membered ring, K2CO3/CsF/3A MS, DMSO, 43.8 mM, 150.0 °C, 16.0 h, 2 steps", "value": 54, "unit": "%"}, {"measurement": "EC50", "setting": "[2]", "value": "< 1000", "unit": "nM"}, {"measurement": "Max. Activity", "setting": "[2]", "value": "+++ (+++ is >60%)"}]}
{"compound": "CC1(C)CC2CCCOc3ccc(cc3)S(=O)(=O)NC(=O)c3ccc(-n4ccc(OCCC5(C(F)(F)F)CC5)n4)nc3N1C2", "note": "(racemic) [Compound 88, 12,12-Dimethyl-8-(3-{2-[1-(trifluoromethyl)cyclopropyl]ethoxy}-1H-pyrazol-1-yl)-18-oxa-2λ^6-thia-3,9,11-triazatetracyclo[17.2.2.111,14.05,10]tetracosa-1(21),5,7,9,19,22-hexaene-2,2,4-trione]", "values": [{"measurement": "ring closure, isolated yield", "setting": "[1]; from CC1(C)CC(CCCOc2ccc(S(=O)(=O)NC(=O)c3ccc(-n4ccc(OCCC5(C(F)(F)F)CC5)n4)nc3Cl)cc2)CN1, 16-membered ring, K2CO3/CsF/3A MS, DMSO, 37.3 mM, 35.0 h", "value": 4, "unit": "%"}, {"measurement": "EC50", "setting": "[2]", "value": "< 1000", "unit": "nM"}, {"measurement": "Max. Activity", "setting": "[2]", "value": "++ (++ is 30-60%)"}]}
{"compound": "CC1(C)C2CCNc3cccc(n3)S(=O)(=O)NC(=O)c3ccc(-n4ccc(OCCC5(C(F)(F)F)CC5)n4)nc3N1CC2", "note": "(centres unmarked) [Compound 236, 23,23-Dimethyl-11-(3-{2-[1-(trifluoromethyl)cyclopropyl]ethoxy}-1H-pyrazol-1-yl)-17λ^6-thia-2,8,10,16,22-pentaazatetracyclo[16.3.1.15,8.09,14]tricosa-1(22),9,11,13,18,20-hexaene-15,17,17-trione]", "values": [{"measurement": "ring closure, isolated yield", "setting": "[1]; from CC1(C)NCCC1CCNc1cccc(S(=O)(=O)NC(=O)c2ccc(-n3ccc(OCCC4(C(F)(F)F)CC4)n3)nc2Cl)n1, 14-membered ring, K2CO3/3A MS, DMSO, 25.1 mM, 180.0 °C, 18.0 h", "value": 2, "unit": "%"}, {"measurement": "EC50", "setting": "[2]", "value": "> 3000", "unit": "nM"}, {"measurement": "Max. Activity", "setting": "[2]", "value": "+ (+ is <30%)"}]}
{"compound": "CC1(C)CCC2CCNc3cccc(n3)S(=O)(=O)NC(=O)c3ccc(-n4ccc(OCCC5(C(F)(F)F)CC5)n4)nc3N21", "note": "(racemic) [Compound 108, 8,8-Dimethyl-12-(3-{2-[1-(trifluoromethyl)cyclopropyl]ethoxy}-1H-pyrazol-1-yl)-18λ^6-thia-2,9,11,17,23-pentaazatetracyclo[17.3.1.05,9.010,15]tricosa-1(23),10(15),11,13,19,21-hexaene-16,18,18-trione]", "values": [{"measurement": "ring closure, isolated yield", "setting": "[1]; from CC(C)(C)OC(=O)N1C(CCNc2cccc(S(=O)(=O)NC(=O)c3ccc(-n4ccc(OCCC5(C(F)(F)F)CC5)n4)nc3Cl)n2)CCC1(C)C, 13-membered ring, TFA (Boc off), CsF/K2CO3/3A MS, DMSO, 84.6 mM, 130.0 °C, 2 steps", "value": 55, "unit": "%"}, {"measurement": "EC50", "setting": "[2]", "value": "< 1000", "unit": "nM"}, {"measurement": "Max. Activity", "setting": "[2]", "value": "++ (++ is 30-60%)"}]}
{"compound": "CC1(C)C[C@@H]2CCCn3ccc(n3)S(=O)(=O)NC(=O)c3ccc(-n4ccc(OCCC5C6(CC6)C56CC6)n4)nc3N1C2", "note": "[Compound 187, (18S)-4-[3-(2-{Dispiro[2.0.2.1]heptan-7-yl}ethoxy)-1H-pyrazol-1-yl]-20,20-dimethyl-10λ^6-thia-1,3,9,14,22-pentaazatetracyclo[16.2.1.111,14.02,7]docosa-2,4,6,11(22),12-pentaene-8,10,10-trione]", "values": [{"measurement": "ring closure, isolated yield", "setting": "[1]; from CC1(C)C[C@H](CCCn2ccc(S(=O)(=O)NC(=O)c3ccc(-n4ccc(OCCC5C6(CC6)C56CC6)n4)nc3Cl)n2)CN1, 14-membered ring, K2CO3/CsF/3A MS, DMSO, 26.2 mM, 155.0 °C, 18.0 h", "value": 72, "unit": "%"}, {"measurement": "EC50", "setting": "[2]", "value": "< 1000", "unit": "nM"}, {"measurement": "Max. Activity", "setting": "[2]", "value": "+++ (+++ is >60%)"}]}
{"compound": "CC1(C)C[C@@H]2CCCNc3ccc(OCc4ccccc4)c(n3)S(=O)(=O)NC(=O)c3ccc(-n4ccc(OCCC5C6(CC6)C56CC6)n4)nc3N1C2", "values": [{"measurement": "ring closure, isolated yield", "setting": "[1]; from CC1(C)C[C@H](CCCNc2ccc(OCc3ccccc3)c(S(=O)(=O)NC(=O)c3ccc(-n4ccc(OCCC5C6(CC6)C56CC6)n4)nc3Cl)n2)CN1, 15-membered ring, K2CO3, NMP, 57.2 mM, 150.0 °C, 20.0 h", "value": 37, "unit": "%"}]}
{"compound": "CC1(C)CC2CC(F)CNc3cccc(n3)S(=O)(=O)NC(=O)c3ccc(-n4ccc(OCCC5C6(CC6)C56CC6)n4)nc3N1C2", "note": "(centres unmarked)", "values": [{"measurement": "ring closure, isolated yield", "setting": "[1]; from 2-chloro-N-[[6-[[3-(5,5-dimethylpyrrolidin-3-yl)-2-fluoro-propyl]amino]-2-pyridyl]sulfonyl]-6-[3-(2-dispiro[2.0.2.1]heptan-7-ylethoxy)pyrazol-1-yl]pyridine-3-carboxamide (dihydrochloride salt), 15-membered ring, K2CO3, NMP, 32.3 mM, 150.0 °C", "value": 76, "unit": "%"}]}
{"compound": "CC1(C)CC2CCCn3ccc(n3)S(=O)(=O)NC(=O)c3ccc(-n4ccc(OCCC5C(C)(C)C5(C)C)n4)nc3N1C2", "note": "(centres unmarked)", "values": [{"measurement": "ring closure, isolated yield", "setting": "[1]; from CC(C)(C)OC(=O)N1CC(CCCn2ccc(S(=O)(=O)NC(=O)c3ccc(-n4ccc(OCCC5C(C)(C)C5(C)C)n4)nc3Cl)n2)CC1(C)C, 14-membered ring, K2CO3/3A MS, NMP, 49.2 mM, 160.0 °C, 2 steps", "value": 20, "unit": "%"}]}
{"compound": "CC1CCC2CN(c3nc(Cl)ccc3C(=O)NS(=O)(=O)c3cccc(n3)N1)C(C)(C)C2", "note": "(centres unmarked)", "values": [{"measurement": "ring closure, isolated yield", "setting": "[1]; from CC(CCC1CN(C(=O)OC(C)(C)C)C(C)(C)C1)Nc1cccc(S(=O)(=O)NC(=O)c2ccc(Cl)nc2Cl)n1, 15-membered ring, K2CO3/CsF/3A MS, DMSO, 229.0 mM, 140.0 °C, 2 steps", "value": 31, "unit": "%"}]}
{"compound": "CC1(C)CC2CCCCNc3ccc(cn3)S(=O)(=O)NC(=O)c3ccc(-n4ccc(OCC5C6(CC6)C56CC6)n4)nc3N1C2", "note": "(centres unmarked)", "values": [{"measurement": "ring closure, isolated yield", "setting": "[1]; from 2-chloro-N-[[6-[4-(5,5-dimethylpyrrolidin-3-yl)butylamino]-3-pyridyl]sulfonyl]-6-[3-(dispiro[2.0.2.1]heptan-7-ylmethoxy)pyrazol-1-yl]pyridine-3-carboxamide (dihydrochloride salt), 17-membered ring, K2CO3/CsF, NMP, 115.5 mM", "value": 22, "unit": "%"}]}
{"compound": "CC1(C)C[C@@H]2CCCNc3cccc(n3)S(=O)(=O)NC(=O)c3ccc(-n4ccc(OCC(O[Si](C)(C)C(C)(C)C)C5C6(CC6)C56CC6)n4)nc3N1C2", "note": "(some centres unmarked)", "values": [{"measurement": "ring closure, isolated yield", "setting": "[1]; from CC1(C)C[C@H](CCCNc2cccc(S(=O)(=O)NC(=O)c3ccc(-n4ccc(OCC(O[Si](C)(C)C(C)(C)C)C5C6(CC6)C56CC6)n4)nc3Cl)n2)CN1, 15-membered ring, K2CO3/MS, DMSO, 9.9 mM, 140.0 °C, 12.0 h", "value": 55, "unit": "%"}]}
{"compound": "CC1(C)C[C@@H]2CCCNc3cc(OCc4ccccc4)cc(n3)S(=O)(=O)NC(=O)c3ccc(-n4ccc(OCCC5C6(CC6)C56CC6)n4)nc3N1C2", "values": [{"measurement": "ring closure, isolated yield", "setting": "[1]; from CC1(C)C[C@H](CCCNc2cc(OCc3ccccc3)cc(S(=O)(=O)NC(=O)c3ccc(-n4ccc(OCCC5C6(CC6)C56CC6)n4)nc3Cl)n2)CN1, 15-membered ring, K2CO3/CsF, DMSO, 15.3 mM, 160.0 °C, 15.0 h", "value": 61, "unit": "%"}]}
{"compound": "CC1(C)C[C@@H]2CCCNc3cccc(n3)S(=O)(=O)NC(=O)c3ccc(N4CCC(OCCC5C6(CC6)C56CC6)C4=O)nc3N1C2", "note": "(some centres unmarked)", "values": [{"measurement": "ring closure, isolated yield", "setting": "[1]; from 2-chloro-N-[[6-[3-[(3S)-5,5-dimethylpyrrolidin-3-yl]propylamino]-2-pyridyl]sulfonyl]-6-[3-(2-dispiro[2.0.2.1]heptan-7-ylethoxy)-2-oxo-pyrrolidin-1-yl]pyridine-3-carboxamide (dihydrochloride salt), 15-membered ring, K2CO3, NMP, 24.0 mM, 150.0 °C", "value": 52, "unit": "%"}]}
{"compound": "CC1(C)C[C@@H]2CCCNc3nc(ccc3OCc3ccccc3)S(=O)(=O)NC(=O)c3ccc(-n4ccc(OCCCC5(C(F)(F)F)CC5)n4)nc3N1C2", "values": [{"measurement": "ring closure, isolated yield", "setting": "[1]; from CC1(C)CC(CCCNc2nc(S(=O)(=O)NC(=O)c3ccc(-n4ccc(OCCCC5(C(F)(F)F)CC5)n4)nc3Cl)ccc2OCc2ccccc2)CN1, 15-membered ring, K2CO3/CsF, DMSO, 17.7 mM, 160.0 °C, 15.0 h", "value": 82, "unit": "%"}]}
{"compound": "CC(C)(C)CCCOC1CCN(c2ccc3c(n2)N2C[C@@H](CCCNc4cccc(n4)S(=O)(=O)NC3=O)CC2(C)C)C1=O", "note": "(single isomer, unassigned; diastereomer 1)", "values": [{"measurement": "ring closure, isolated yield", "setting": "[1]; from 2-chloro-6-[3-(4,4-dimethylpentoxy)-2-oxo-pyrrolidin-1-yl]-N-[[6-[3-[(3S)-5,5-dimethylpyrrolidin-3-yl]propylamino]-2-pyridyl]sulfonyl]pyridine-3-carboxamide (dihydrochloride salt), 15-membered ring, K2CO3, NMP, 24.7 mM, 155.0 °C", "value": 20, "unit": "%"}]}
{"compound": "12,12,19-trimethyl-8-(3-{2-[1-(trifluoromethyl)cyclopropyl]ethoxy}-1H-pyrazol-1-yl)-2λ^6-thia-3,9,11,19,21-pentaazatetracyclo[18.2.2.111,14.05,10]pentacosa-1(23),5,7,9,20(24),21-hexaene-2,2,4-trione (dihydrochloride salt)", "values": [{"measurement": "ring closure, isolated yield", "setting": "[1]; 17-membered ring, K2CO3/CsF, DMSO, 42.1 mM, 150.0 °C", "value": 39, "unit": "%"}]}
{"compound": "CC1(C)C[C@@H]2CCCNc3ccc(OCc4ccccc4)c(n3)S(=O)(=O)NC(=O)c3ccc(-n4ccc(OCCCC5(C(F)(F)F)CC5)n4)nc3N1C2", "values": [{"measurement": "ring closure, isolated yield", "setting": "[1]; from N-[[3-benzyloxy-6-[3-[(3S)-5,5-dimethylpyrrolidin-3-yl]propylamino]-2-pyridyl]sulfonyl]-2-chloro-6-[3-[3-[1-(trifluoromethyl)cyclopropyl]propoxy]pyrazol-1-yl]pyridine-3-carboxamide (ditrifluoroacetate salt), 15-membered ring, K2CO3, NMP, 42.6 mM, 150.0 °C", "value": 39, "unit": "%"}]}
{"compound": "CC1(C)C[C@@H]2CCCNc3nc(ccc3OCc3ccccc3)S(=O)(=O)NC(=O)c3ccc(-n4ccc(OCCC5C6(CC6)C56CC6)n4)nc3N1C2", "values": [{"measurement": "ring closure, isolated yield", "setting": "[1]; from CC1(C)C[C@H](CCCNc2nc(S(=O)(=O)NC(=O)c3ccc(-n4ccc(OCCC5C6(CC6)C56CC6)n4)nc3Cl)ccc2OCc2ccccc2)CN1, 15-membered ring, K2CO3/CsF, DMSO, 17.2 mM, 160.0 °C, 15.0 h", "value": 83, "unit": "%"}]}
{"compound": "racemic 8-[3-(2-{dispiro[2.0.2.1]heptan-7-yl}ethoxy)-1H-pyrazol-1-yl]-16,16-difluoro-12,12-dimethyl-2λ^6-thia-3,9,11,18,23-pentaazatetracyclo[17.3.1.111,14.05,10]tetracosa-1(22),5,7,9,19(23),20-hexaene-2,2,4-trione", "values": [{"measurement": "ring closure, isolated yield", "setting": "[1]; 15-membered ring, K2CO3, NMP, 31.1 mM, 150.0 °C", "value": 83, "unit": "%"}]}
